Reference: patent US4368194A, “Pharmacologically active amine boranes” (The United States of America as represented by the …, priority 1981, dated 1983)
Where two headings read alike, the source gives them in different places.

Key:
[1] = system: Cathepsin; assay: Lysosomal free cathepsin activity, liver homogenate; format: biochemical, rats; conditions: 5 μmoles, in vitro; 20 min
Protocol: (§1) Lysosomal enzymatic assays - Sprague Dawley rats (about 160 g) were sacrificed, the liver excised, and a 10% homogenate (4x) in 0.25 M sucrose and 0.001 M (ethylenedinitrilo) tetra acetic acid, ph 7.2 was prepared.
(§2) Acid phosphatase activity (Gianetto et al., Biochem J., 59, 433 1955) was carried out by incubating with 0.1 Mβ-glycerol phosphate in 0.1 M acetate, pH 5.0 with 5 μmoles of test drugs in 1% carboxymethylcellulose (CMC) for 20 min with liver homogenate and 60 min with resuspended PMNs. Lysosome enzymes were released by 0.02% alkyl phenoxy polyethoxy ethanol-100 to obtain the total enzymatic activity. The reaction was stopped with 10% trichloroacetic acid and the solution centrifuged. Aliquots of the supernatant were assayed for inorganic phophate content by the method of Chen et al., Anal Chem., 28, 1756 (1956). Percent free acid phosphatase was calculated. Cathepsin activity was determined in an analagous manner except the substrate used was 2% azocasein (Schleuning et al., Methods in Enzymology, XLV, 330 1976) in 0.1 M acetate buffer pH 5.0. The supernatant was assayed for acid soluble peptide fragments at 366 nm. Percent free cathepsin activity was calculated.

[2] = system: liver mitochondria; assay: Oxidative phosphorylation, α-ketoglutarate as substrate; format: biochemical, rats; conditions: 5 μmoles; for Oxidative Phosphorylation α Ketoglutarate State 3: ADP stimulated respiration; for Oxidative Phosphorylation α Ketoglutarate State 4: basal respiration
Protocol: (§3) Basal and adenosine diphosphate stimulated respiration on 10% liver homogenates was measured using succinate or αketoglutarate as substrate. See Glatt, et al., supra. The reaction vessel contained sucrose 55μ moles, KCl 22μ moles, K2 HPO4 22μ moles, test compounds at 5μ moles in 1% CMC and sodium succinate 90μ moles or αketoglutarate 60μ moles in a total volume of 1.8 ml. […] The rate of respiration was calculated at μl of O2 consumed/hr/mg wet weight of liver.

[3] = system: Acid phosphatase; assay: Lysosomal free acid phosphatase activity, liver homogenate; format: biochemical, rats; conditions: 5 μmoles, in vitro; 20 min
Protocol: as §1, §2

[4] = system: carrageenan induced edema in mouse foot pads; assay: Anti-inflammatory screen (carrageenan induced foot edema); format: in vivo, mice; conditions: for Anti-inflammatory Screen: 10 mg/kg × 2 intraperitoneally, mice; for inhibition of the carrageenan induced edema in mouse foot pads: text summary of Table II
Protocol: CF1 male mice (about 30 g) were administered test drugs at 10 mg/kg in 0.05% polysorbate .80-water intraperitoneally 3 hr and 30 min prior to 0.05 ml of 2% carrageenan in 0.9% saline injected into the plantar surface of the right hind foot. Saline injected into the left hind foot served as a base line. After 3 hr, both feet were excised at the tibiotarsal (ankle) joint according to the modified (Roszkowski et al., J. Pharm. Exp. Ther., 179, 114 1971) method of Winter, resulting in an 87 mg net increase in the weight of the control animals' feet.

[5] = system: Sprague Dawley rats; assay: Red and white blood cell counts after 3 weeks dosing; format: in vivo; conditions: dosing for three weeks intraperitoneally, rats
Excerpt: Hematocrits were also obtained.

[6] = system: cAMP levels in PMNs; assay: Cyclic-3',5'-adenosine monophosphate levels (cAMP) in PMNs; format: cell-based; conditions: 1 h
Protocol: (§4) Polymorphonuclear neutrophils (PMNs) were collected from the peritoneal cavity four hr after the injection of 35 ml of 0.5% oyster glycogen in isotonic saline (Orange et al., J. Exp. Med., 127, 767 1968). The PMNs were centrifuged down at 800 g for 20 min, washed, and resuspended in minumen essential medium (MEM) with 10% fetal calf serum pH 7.4.
Isolated PMNs were incubated with test drugs at 5μ moles for 1 hr at 37° C. in MEM at pH 7.4. The reaction was stopped with 6% trichloroacetic acid. The cyclic-3',5'-adenosine monophosphate levels were determined by the radioimmunoassay of Gilman, Proc. Natl. Acad. Sci. (USA), 67, 305 (1970), using 3H(G)-cyclic-3',5'-adenosine monophosphate (39.8 Cu/m mol). Results were calculated in p mole/10^7 PMNs cells.

[7] = system: Acid phosphatase; assay: Lysosomal free acid phosphatase activity, PMNs; format: cell-based; conditions: 5 μmoles; for PMNs % Free Acid Phosphatase Activity, pH5: in vitro, 60 min
Protocol: as §4, §2

[8] = system: Cathepsin; assay: Lysosomal free cathepsin activity, PMNs; format: cell-based; conditions: 5 μmoles; for PMNs % Free Cathespin Activity, pH5: in vitro, 60 min
Protocol: as §4, §2

[9] = target: T1, prostaglandin synthetase from beef seminal vesicle (Bos taurus, UniProt O62664); assay: Prostaglandin synthetase activity; format: biochemical; conditions: 10^-6 M; for activity at 1 µM: 1 h, read-out: Prostaglandin Synthesis
T1 construct: purchased; host or cells: beef seminal vesicle
T1 sequence (O62664 25-600): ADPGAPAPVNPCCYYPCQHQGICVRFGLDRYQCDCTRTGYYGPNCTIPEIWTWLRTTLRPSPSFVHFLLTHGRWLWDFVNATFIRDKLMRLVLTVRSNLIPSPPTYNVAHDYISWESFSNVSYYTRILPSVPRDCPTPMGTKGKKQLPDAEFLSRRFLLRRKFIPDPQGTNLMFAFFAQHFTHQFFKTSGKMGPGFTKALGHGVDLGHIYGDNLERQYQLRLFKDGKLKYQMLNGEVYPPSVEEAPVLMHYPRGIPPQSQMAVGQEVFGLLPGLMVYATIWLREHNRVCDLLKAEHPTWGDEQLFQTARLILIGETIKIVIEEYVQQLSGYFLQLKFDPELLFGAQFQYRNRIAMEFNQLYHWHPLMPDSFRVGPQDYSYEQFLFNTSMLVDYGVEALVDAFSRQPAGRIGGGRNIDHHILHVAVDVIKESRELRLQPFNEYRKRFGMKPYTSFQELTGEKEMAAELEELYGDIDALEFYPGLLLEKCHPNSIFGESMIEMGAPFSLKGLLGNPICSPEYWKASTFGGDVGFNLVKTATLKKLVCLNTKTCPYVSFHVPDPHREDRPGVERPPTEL
Protocol: After 1 hr at 37° C. the reaction was stopped with 1 N HCl and extracted with ethyl ether and evaporated. […] The plates were dried and developed in iodine vapor and with the use of prostaglandin standards the appropriate areas were scraped and counted for ^3 H content. Indometacin was used as a standard at 10^-4 M concentration. Test drugs were used at 10^-6 M.

[10] = system: liver mitochondria; assay: Oxidative phosphorylation, succinate as substrate; format: biochemical, rats; conditions: 5 μmoles; for Oxidative Phosphorylation Succinate State 3: ADP stimulated respiration; for Oxidative Phosphorylation Succinate State 4: basal respiration
Protocol: as §3

[11] = system: CF1 male mice; assay: Writhing reflex (acetic acid); format: in vivo; conditions: for Writhing Reflex: 20 mg/kg intraperitoneally, mice; for inhibition of the writhing reflex: text summary of Table II
Protocol: CF1 male mice were administered test drugs at 20 mg/kg intraperitoneally 20 min (see Hendershat et al., J. Pharmacol Exp. Ther. 125, 237 1959) prior to the administration of 0.5 ml of 0.6% acetic acid (Vingar et al., European J. PHarmacol, 37, 23 1976). After 5 min the number of stretches, characterized by repeated contractures of the abdominal musculature accompanied by extension of the hind limbs, was counted for the next 10 min. The control mice had 78 stretch reflexes per 10 min.

[12] = Hydrolytic, air and moisture stability
[13] = in vivo; conditions: mouse
[14] = pH 7.4, 5 μmoles, in vitro, read-out: PMNs cAMP Level

Compound | Liver % Free Cathepsin Activity, pH5 [1] [% Control] | Oxidative Phosphorylation α Ketoglutarate State 3 [2] [% Control] | Oxidative Phosphorylation α Ketoglutarate State 4 [2] [% Control] | Liver % Free Acid Phosphatase Activity, pH5 [3] [% Control] | Anti-inflammatory Screen [4] [% Control] | inhibition of the carrageenan induced edema in mouse foot pads [4] | activity at 5 µmol [6, 14] [%] | PMNs % Free Acid Phosphatase Activity, pH5 [7] [% Control] | PMNs % Free Cathespin Activity, pH5 [8] [% Control] | activity at 1 µM [9] [%] | Oxidative Phosphorylation Succinate State 3 [10] [% Control] | Oxidative Phosphorylation Succinate State 4 [10] [% Control] | Writhing Reflex [11] [% Control] | inhibition of the writhing reflex [11] [%] | also measured
[BH3-][NH+]1CCOCC1 [Compound II, O(CH2 CH2)2 NH.BH3] | 107 ± 6 | 50 ± 11 | 97 ± 29 | 75 ± 8 | 55 | at least 40% | 107 | 79 ± 5 | 93 ± 7 | 100 ± 5 | 66 ± 10 | 115 ± 15 | 15 | 80 | alteration of the red blood or white blood cell count/cu mm [5]: no alteration
C[N+](C)(C)[BH2-]C(=O)O [VIII, trimethylamine-carboxyborane] | 56 ± 6 | 70 ± 20 | 127 ± 22 | 82 ± 5 | 79 | – | 99 | 50 ± 3 | 14 ± 4 | 93 ± 3 | 63 ± 4 | 122 ± 14 | 29 | 70 | uncoupling with α-ketoglutarate as substrate [2]: uncoupling; inhibition of free acid phosphatase activity in PMNs [7]: 50%; inhibition of PMN cathepsin activity [8]: at least 82%; stability to air and water/moisture [12]: stable in air and H2 O
N#C[BH2-][NH3+] [XVII, ammonia-cyanoborane] | 48 ± 6 | 40 ± 9 | 149 ± 27 | 75 ± 5 | 51 | at least 40% | – | 100 ± 2 | 26 ± 4 | 55 ± 6 | 60 ± 11 | 112 ± 7 | 50 | – | LD50 [13]: 30 mg/kg; activity at 5 µmol ([6]; pH 7.4, read-out: PMNs cAMP Level): 93%; inhibition at 1 µM ([9]; read-out: inhibition of prostaglandin synthesis): > 30%; loss of hydrogen (hydrolytic stability) ([12]; concentrated HCl, 70 hr, room temperature): 8%
